The conditions of the data set: for stability of pyrophosphate on storage: 1 week at 40° C.; for stability of pyrophosphate on storage / loss of pyrophosphate during sterilization: all buffers; for change in the pH of the solutions: after sterilization and after storage for a week at 40° C.; for loss of pyrophosphate during sterilization: pH 6 and lower; for Recoveries: unsterilized. The method, then:
Introduction: This study was designed to evaluate the stability of pyrophosphate salts with different buffers over a pH range from 4 to 10 during steam sterilization and after storage at 40° C. Two pyrophosphate salts and four buffers were obtained for the study. TRIS was added to all solutions as a pH stabilizer. Two of the solutions were also prepared without TRIS for comparison. The pH of the solutions was adjusted from pH 4-10 with 1N HCl or 1N NaOH. The solutions were sterilized at 121° C. for 40 minutes. Pyrophosphate concentration was determined before and after sterilization and after storage. The pH was also determined after sterilization and after storage.
The salts tested were: • 1. Disodium Pyrophosphate (Na2H2P2O7) • 2. Tetrapotassium Pyrophosphate (K4P2O7)
The study was performed using the sodium and potassium salts of pyrophosphate with the buffers shown below. Solutions were not prepared with bicarbonate below pH 7 because bicarbonate will decompose at a lower pH. • 1. Sodium Lactate • 2. Sodium Bicarbonate • 3. Sodium Citrate • 4. Sodium Pyruvate
The concentrations of the solution components are shown below in Table 2.

Each structure is given as a SMILES string. Read-outs that look alike come from different tables or passages of the source.

For the molecule `O=P([O-])([O-])OP(=O)(O)O.[Na+].[Na+]` [Disodium Pyrophosphate], the “change in the pH of the solutions” value is on record as “no change in the pH” and the “loss of pyrophosphate during sterilization” value is listed as “substantial loss of pyrophosphate”. Moreover, the “stability of pyrophosphate on storage” value (pH 7-10) is “remained unchanged”. For the same molecule, the “stability of pyrophosphate on storage” value (pH 7-10, except lactate without TRIS at pH 7) is given as “stable”. In addition, the “change in pH after sterilization” value (all solutions) was “no change in pH”. Moreover, the “pH change after storage” value (storage for up to two months at 40° C., all solutions) is recorded as “less than 0.1 pH unit”. This molecule registered a Recoveries (all buffers at pH 6 and higher) of no less than 95%. Besides, the Recoveries (buffers other than citrate, pH 4 and 5) is 90-102%. Besides, for the setting “with bicarbonate at pH 9-10”, the stability during sterilization result is given as “most stable”.

With `O=P([O-])([O-])OP(=O)([O-])[O-].[K+].[K+].[K+].[K+]` [Tetrapotassium Pyrophosphate], the “change in the pH of the solutions” value is reported as “no change in the pH” and the “loss of pyrophosphate during sterilization” value is recorded as “substantial loss of pyrophosphate”. The “change in pH after sterilization” value (all solutions) is on record as “no change in pH”. Further, the stability during sterilization result (pH 9) is listed as “most stable”. The “pH change after storage” value (storage for 1 week) is “less than 0.1 pH unit”.
